Source: ChEMBL document CHEMBL3600354, “Nitric oxide inhibitory activity and antioxidant evaluations of 2-benzoyl-6-benzylidenecyclohexanone analogs, a novel series of curcuminoid and diarylpentanoid derivatives” (Bioorg Med Chem Lett, 2015)
≈ marks a conversion by molar mass, not a printed value.

Columns and labels:
[1] = Antioxidant activity incubated at 50 degC for 20 mins by FRAP assay; assay type: physicochemical
[2] = Antioxidant activity assessed as nitric oxide radical scavenging activity at 500 uM incubated for 60 mins with light exposure at room temperature by Griess assay; assay type: physicochemical; details: 1 h
[3] = system: RAW264.7; assay: Inhibition of nitric oxide production in LPS/IFNgamma-stimulated mouse RAW264.7 cells at 50 uM incubated for 17 hrs by Griess assay; assay type: functional; details: RAW264.7, 17 h
[4] = system: RAW264.7; assay: Inhibition of nitric oxide production in LPS/IFNgamma-stimulated mouse RAW264.7 cells incubated for 17 hrs by Griess assay; assay type: functional, cell-based; details: RAW264.7, 17 h
[5] = Antioxidant activity assessed as DPPH radical scavenging activity at 200 uM incubated for 30 mins under dark conditions; assay type: physicochemical; details: 0.5 h
[6] = system: RAW264.7; assay: Cytotoxicity against LPS/IFNgamma-stimulated mouse RAW264.7 cells by MTT assay; assay type: cell-based
[7] = Solubility in phosphate buffer at pH 7.4 stirred for 24 hrs at room temperature by HPLC method; assay type: physicochemical
[8] = Stability in human liver microsomes assessed as compound remaining at 1 mM pre-incubated at 37 degC for 5 mins followed by NAPDH addition and further incubated at 37 degC for 120 mins by HPLC method; assay type: ADME; details: read-out: Stability
[9] = Chemical stability in phosphate buffer at pH 7.4 at 20 uM measured over 30 mins at 5 mins intervals at 25 degC by ultraviolet absorption spectroscopy; assay type: physicochemical; details: pH 7.4, 0.5 h
[10] = system: Liver microsome; assay: Stability in human liver microsomes assessed as compound degradation at 1 mM pre-incubated at 37 degC for 5 mins followed by NAPDH addition and further incubated at 37 degC for 15 to 120 mins by HPLC method; assay type: ADME; details: 1000 µM
[11] = Antioxidant activity assessed as DPPH radical scavenging activity incubated for 30 mins under dark conditions; assay type: physicochemical

Row | Activity [1] [mmolequiv/L] | inhibition (INH) [2] [%] | IC50 [4] [µM] | inhibition (INH) [5] [%] | solubility at 24 h [7] [µM] | remaining at 2 h, 1000 µM [8] [%] | Stability [9] | Stability [10] | IC50 [11] [µM] | Compound | inhibition at 50 µM [3] [%] | IC50 [6] [µM]
1 | 0.018 | 28.3 | 32.1 | 21.8 |  |  |  |  |  | COc1cccc(/C=C2\CCCC(C(=O)c3ccccc3)=C2O)c1 | 71.6 | > 100
2 |  |  |  |  | 3.3 (≈ 1.06 µg/mL) | > 60 | Stable | Unstable |  | O=C(C1=C(O)/C(=C/c2ccc(O)c(O)c2)CCC1)c1ccccc1 |  | 
3 | 0.015 | 14.8 |  | 17.8 |  |  |  |  |  | O=C(C1=C(O)/C(=C/c2cccc3ccccc23)CCC1)c1ccccc1 | 15 | 
4 | 0.073 | 21 |  | 11.7 |  |  |  |  |  | O=C(C1=C(O)/C(=C/c2ccc3ccccc3c2)CCC1)c1ccccc1 | 9.3 | 
5 | 0.177 | 3.3 |  | 21.8 |  |  |  |  |  | O=C(C1=C(O)/C(=C/c2cccs2)CCC1)c1ccccc1 | 8.2 | 
6 | 0.14 | 1.6 |  | 18.4 |  |  |  |  |  | Cc1ccc(/C=C2\CCCC(C(=O)c3ccccc3)=C2O)s1 | 7.6 | 
7 |  | 2.6 |  |  |  |  |  |  |  | O=C1O[C@H]([C@@H](O)CO)C(O)=C1O [ASCORBIC ACID] |  | 
8 | 0.798 | 6.5 |  |  |  |  |  |  |  | Cc1cc(C(C)(C)C)c(O)c(C(C)(C)C)c1 [BUTYLATED HYDROXYTOLUENE] |  | 
9 | 0.803 | 88.3 | 14.7 | 84.2 | 1.1 (≈ 0.405 µg/mL) | < 20 | Unstable | Unstable | 23.6 | COc1cc(/C=C/C(=O)CC(=O)/C=C/c2ccc(O)c(OC)c2)ccc1O [CURCUMIN] | 99.3 | 28.8
10 | 0.395 | 12.4 |  |  |  |  |  |  |  | Cc1c(C)c2c(c(C)c1O)CCC(C)(C(=O)O)O2 (configuration not stated) [TROLOX] |  | 
